From US9018000B2, “Voltage gated calcium channel β-subunit anchoring regulator protein and uses thereof” (Agency for Science, Technology and Research, priority 2007, dated 2015)

What was measured:
[1] = cited from earlier work
[2] = system: β-subunits; test: co-immunoprecipitation / co-precipitation of BARP with β-subunits; assay type: binding
Method: To verify that BARP binds to the β-subunits in mammalian cells, co-immunoprecipitation experiments were carried out in COS-1 cells. […] To confirm this association in vivo, we determined the subcellular localization of the β-subunits in the presence of BARP in transfected PC12 and COS-1 cells.
To examine that domain I is indeed a AID-like region, we first mutated the known amino acids in the β-subunit hydrophobic groove responsible for AID interaction, and tested these mutants for association with either AID or BARP domain I by co-precipitation studies. In comparison with the AID domain that only required M196 as a crucial interacting site, almost all amino acid substitutions in the hydrophobic groove of β-subunits interfered with BARP domain I interaction (FIG. 2Cb).
Next, we determined if additional binding sites in BARP are present for β-subunit association. With the use of truncated form of the protein, in which the domain I was abolished, and co-precipitation experiments, we identified a second domain (Dom. II) downstream to the first one (FIG. 2Da).
To further confirm that both domains associate to the β-subunit in the context of full-length BARP, domain I and II were mutated to abolish their respective interaction. […]

[3] = molecular target: T1, β3/AID complex (Rattus norvegicus, UniProt P54287); test: dissociation of β3-subunits from GST-AID by competitive peptides; assay type: binding; settings: peptide 30, 60, 300, 600 nM, four hours, Western blot of supernatant
T1 construct: expressed in transfected cells; host or cells: COS-1 (β3 lysate)
From the text: A, Cell surface expression of HA-epitope tagged Cav1.2 and N-Myc BARP in the presence or absence of Cavβ-subunits. Intact cells expressing Cav1.2, BARP and Cavβ-subunits were immunostained with HA and Myc antibodies. Cav 1.2 AID (X) is a mutant deficient in the β-interacting domain. BARP (db) is a mutant deficient in domain I and II, BARP (LW), or BARP (LFFL), mutants are deficient in domain I and II, respectively. Non-permeabilized TsA201 cells co-expressing wt or mutated HA-Cav1.2, wt or mutated Myc-BARP and the Cavβ-subunits were immunostained with antibodies to HA (green) and Myc (red). Cav 1.2 AID (X) and BARP (db) are mutants defective in Cavβ-subunit binding. […] In vivo expressed Cavβ3-subunits were pulled-down using a GST-AID fusion protein and the complex then incubated with increasing amounts of AID or BARP Domain I peptide. The Cavβ3-subunit displaced from the GST-AID was monitored by Western blot. […] Effects of wt or mutated BARP on the I-V relationship of Ca^2+-channels are shown. […]
To verify if the AID-like domain of BARP dissociates β-subunits from the AID of α1-subunits, COS-1 cells lysate expressing β3 subunits was incubated with GST-AID fusion protein to form a β3/AID complex and subsequently, the dissociation of β3 subunits was monitored after addition of an increasing amount of competitive AID or AID-like BARP peptide (FIG. 4D).

T1 sequence (P54287 whole entry, one chain of several): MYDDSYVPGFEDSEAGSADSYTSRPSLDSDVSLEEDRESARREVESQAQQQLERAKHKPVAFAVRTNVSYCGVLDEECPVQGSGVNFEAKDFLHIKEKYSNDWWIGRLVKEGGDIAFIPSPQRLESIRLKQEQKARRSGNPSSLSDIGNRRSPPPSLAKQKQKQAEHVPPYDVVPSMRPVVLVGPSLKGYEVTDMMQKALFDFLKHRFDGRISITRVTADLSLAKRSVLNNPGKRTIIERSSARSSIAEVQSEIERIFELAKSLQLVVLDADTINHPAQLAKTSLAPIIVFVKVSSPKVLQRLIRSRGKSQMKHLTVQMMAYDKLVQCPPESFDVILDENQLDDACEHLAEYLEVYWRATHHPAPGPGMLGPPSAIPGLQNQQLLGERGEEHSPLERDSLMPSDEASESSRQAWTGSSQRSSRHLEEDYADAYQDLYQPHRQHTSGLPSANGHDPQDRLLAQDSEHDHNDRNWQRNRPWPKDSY

Compound	association with β-subunit isoforms [2]	further results
COC(=O)C1=C(C)NC(C)=C([N+](=O)[O-])C1c1ccccc1C(F)(F)F (stereo not shown) [BayK 8644]	–	side effects in vivo [1]: severe side effects such as dystonic neurobehavioural syndrome, hypertension and arrhythmia
Isolated BARP domain I: isolated AID-like β-interacting domain I of BARP, expressed as GST fusion	able to associate with all known) β-subunit isoforms	–
SYRDLWSLRASLELHAATASD [BARP Domain I peptide]	–	dissociation of β3-subunit from GST-AID [3]: displaces the Cavβ3-subunit from the AID
isolated domain II: isolated second β-interacting domain of BARP (SEQ ID NO:8) (PRAWPRRPRRDYSIDEKTDALFHEFLRHDPHFDDAPRHR)	interacted with β2, β3 and β4, but not with β1 isoforms	–
